Measurements taken from patent EP1555271A1, “Peptides useful for diagnosis and therapy of TRP-2+ and/or TRP-1+ tumors” (Deutsches Krebsforschungszentrum Stiftung des öffentlichen …, priority 2004, dated 2005).
Ends that are not written are not given here.

Target: HLA-DRB1*0301 (Homo sapiens, UniProt P01903+P01911, A100K/A102G/A103R/A169T/F55Y/I96L/K41T/L162R/M171V/P40S/Q125H/Q178H/Q39Y/R42S/S66N/T106N/T262R/W38E/Y61H)
Experiment: HLA-DR competitive binding assay on T2.DR3 cells (biotinylated TT829-843 reporter peptide, Europium sandwich immunoassay)
Conditions: dose necessary to reduce TT reporter peptide binding to 50%, 10 µM TT829-843 reporter, 180 min

Sequence “HLLCLERDLQRLIGN [TRP-2223-237, HLLCLERDLQRLIGN]” has an IC50 of 7.5 µM.
